Target: T1, P2X7 (UniProt Q99572)
T1 sequence (Q99572 1-595): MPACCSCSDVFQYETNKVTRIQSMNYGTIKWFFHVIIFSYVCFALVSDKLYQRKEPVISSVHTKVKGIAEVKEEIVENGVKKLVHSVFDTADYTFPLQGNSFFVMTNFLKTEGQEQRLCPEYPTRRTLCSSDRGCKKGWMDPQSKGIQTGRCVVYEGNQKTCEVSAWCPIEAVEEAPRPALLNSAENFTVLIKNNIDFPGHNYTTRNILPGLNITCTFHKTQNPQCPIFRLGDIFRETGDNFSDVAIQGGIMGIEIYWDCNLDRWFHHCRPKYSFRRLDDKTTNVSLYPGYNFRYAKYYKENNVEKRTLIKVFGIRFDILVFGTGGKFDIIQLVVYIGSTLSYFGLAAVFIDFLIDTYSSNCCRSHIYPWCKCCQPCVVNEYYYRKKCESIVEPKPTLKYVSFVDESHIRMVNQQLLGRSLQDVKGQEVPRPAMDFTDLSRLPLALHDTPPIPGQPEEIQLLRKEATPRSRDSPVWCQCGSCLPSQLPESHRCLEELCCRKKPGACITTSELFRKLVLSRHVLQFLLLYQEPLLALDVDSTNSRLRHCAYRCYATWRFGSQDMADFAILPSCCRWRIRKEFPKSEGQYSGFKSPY
Assay: pIC50 values for P2X7 (Table 1)
Type: cell-based
Method in brief: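 Fluo-3-loaded 1321N1 cells expressing human P2X7 or HEK293 cells expressing rat P2X7, preincubated 20 min at room temperature with antagonist in HBSS/Hepes/probenecid buffer with 2 mM CaCl2. BzATP agonist at 100 μM final (human) or 5 μM final (rat); fluorescence read 5 min, peak normalized to 5 μM ionomycin response.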

pIC50: 7.01
Compound: Cc1ccc(NC(=O)N2C=CC(=O)C[C@H]2c2ccc(F)cc2)cc1C [Compound 158, (S)-2-(4-Fluoro-phenyl)-4-oxo-3,4-dihydro-2H-pyridine-1-carboxylic acid (3,4-dimethyl-phenyl)-amide]

Reference: patent US8153809B2, “Dihydropyridone ureas as P2X7 modulators” (Roche Palo Alto LLC, priority 2008, dated 2012)
